Literature values, collected in patent US20220117915A1, “METHODS OF TREATING ACUTE STRESS DISORDER AND POSTTRAUMATIC STRESS DISORDER” (Tonix Pharma Holdings Limited, priority 2018, published 2022).

Key:
[1] = target: serotonergic-2A (5-HT2A) receptor (Homo sapiens, UniProt P28223)
[2] = target: alpha-adrenergic-1A (α1A) receptor (Homo sapiens, UniProt P35348)
[3] = ASD or very early PTSD

Sequence of alpha-adrenergic-1A (α1A) receptor (P35348 whole entry): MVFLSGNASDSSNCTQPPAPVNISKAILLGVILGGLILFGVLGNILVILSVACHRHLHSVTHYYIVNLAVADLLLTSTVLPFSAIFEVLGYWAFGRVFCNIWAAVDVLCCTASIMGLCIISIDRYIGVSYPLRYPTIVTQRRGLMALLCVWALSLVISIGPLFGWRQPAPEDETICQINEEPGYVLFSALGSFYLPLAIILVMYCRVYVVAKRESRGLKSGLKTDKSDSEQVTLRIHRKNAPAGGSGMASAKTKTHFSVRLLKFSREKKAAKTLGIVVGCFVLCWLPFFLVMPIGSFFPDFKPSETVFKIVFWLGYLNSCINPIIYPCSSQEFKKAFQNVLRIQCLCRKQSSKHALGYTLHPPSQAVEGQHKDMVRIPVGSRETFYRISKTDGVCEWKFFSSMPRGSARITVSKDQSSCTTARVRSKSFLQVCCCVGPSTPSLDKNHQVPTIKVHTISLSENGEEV
Sequence of serotonergic-2A (5-HT2A) receptor (P28223 whole entry, species assumed): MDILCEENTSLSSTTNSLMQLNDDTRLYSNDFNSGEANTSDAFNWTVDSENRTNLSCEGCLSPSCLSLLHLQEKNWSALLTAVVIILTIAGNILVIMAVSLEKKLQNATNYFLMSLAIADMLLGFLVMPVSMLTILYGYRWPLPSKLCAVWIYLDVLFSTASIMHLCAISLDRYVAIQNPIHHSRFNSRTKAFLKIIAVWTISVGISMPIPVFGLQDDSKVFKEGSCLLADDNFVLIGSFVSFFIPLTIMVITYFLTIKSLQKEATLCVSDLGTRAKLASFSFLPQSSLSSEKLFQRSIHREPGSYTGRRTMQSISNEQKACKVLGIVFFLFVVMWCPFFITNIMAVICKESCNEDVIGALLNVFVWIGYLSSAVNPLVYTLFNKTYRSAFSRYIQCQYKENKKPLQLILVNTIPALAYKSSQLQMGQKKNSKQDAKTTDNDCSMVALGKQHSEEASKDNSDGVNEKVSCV

Question: With CN(C)CCC=C1c2ccccc2C=Cc2ccccc21 [Cyclobenzaprine, 3-(5H-dibenzola[a,d]cyclohepten-5-ylidene)-N,N-dimethyl-1 propanamine] as the compound, how does the “5-HT2A receptor antagonist activity” value [1] read?
Answer: potent

Question: And the “α1A receptor antagonist activity” value [2]?
Answer: potent

Question: With CN(C)CCC[C@@]1(c2ccc(F)cc2)OCc2cc(C#N)ccc21 [escitalopram] as the compound, how does the “preventing development of PTSD versus placebo” value [3] read?
Answer: failed to perform any better than the placebo

Question: What does the source list for Fc1ccc([C@@H]2CCNC[C@H]2COc2ccc3c(c2)OCO3)cc1 [paroxetine]?
Answer: efficacy as a PTSD treatment (long-standing PTSD, average of 15 years since the trauma): offered patients with long-standing PTSD relief; improvement by time since trauma (trauma more than 5 years prior to treatment versus more recent trauma): greater improvement
